Assay results taken from publication PMC6516043, “Functional Analysis of the Chemosensory Protein GmolCSP8 From the Oriental Fruit Moth, Grapholita molesta (Busck) (Lepidoptera: Tortricidae)” (Frontiers in Physiology, 2019).

Tests used:
Assay type in all cases: binding
[1] = target: GmolCSP8-L80A (Grapholita molesta, UniProt A0A0M4FML8, L95A); assay: Titration of protein with fluorescent probe 1-NPN, mutant L80A
Description: (§1) To determine whether GmolCSP8 is involved in odorant binding, fluorescence competitive binding assays were performed ([Zhong et al., 2012]). The fluorescence spectra were recorded using a fluorescence spectrophotometer (F-4500, Hitachi, Tokyo, Japan) in a 1 cm light path fluorimeter quartz cuvette with 10 nm slits for excitation and 20 nm slits for emission. The selected chemicals are listed in Table 2, and included four sex pheromone components and 34 volatiles from different host plants (peach and pear trees) of G. molesta based on previous investigations ([Natale et al., 2004]; [Lu et al., 2012]; [Najar-Rodriguez et al., 2013b]). […] The fluorescent probe was excited at 337 nm and emission spectra were recorded from 370 to 550 nm. […] Dissociation constants (Kd) of protein to 1-NPN were calculated by non-linear regression, using GraphPad Prism 4.00 software (GraphPad Software Inc.). The inhibition constants (Ki) of the competitors were determined using the corresponding IC50 values (concentration of competitor that reduced the initial fluorescence intensity by half) based on the following equation: Ki = [IC50]/(1+[1-NPN]/K1-NPN), where [1-NPN] is the free concentration of 1-NPN and K1-NPN is the dissociation constant of the complex GmolCSP8/1-NPN. […]

[2] = target: GmolCSP8-T27A (Grapholita molesta, UniProt A0A0M4FML8, T42A); assay: Titration of protein with fluorescent probe 1-NPN, mutant T27A
Description: as §1

[3] = target: GmolCSP8-L30A (Grapholita molesta, UniProt A0A0M4FML8, L45A); assay: Titration of protein with fluorescent probe 1-NPN, mutant L30A
Description: as §1

[4] = target: rGmolCSP8 (Grapholita molesta, UniProt A0A0M4FML8); assay: Titration of protein with fluorescent probe 1-NPN, wild-type; conditions: wild-type rGmolCSP8, 2 μM protein, pH 7.4; read-out: Kd (dissociation constant) of 1-NPN
Description: To determine whether GmolCSP8 is involved in odorant binding, fluorescence competitive binding assays were performed ([Zhong et al., 2012]). The fluorescence spectra were recorded using a fluorescence spectrophotometer (F-4500, Hitachi, Tokyo, Japan) in a 1 cm light path fluorimeter quartz cuvette with 10 nm slits for excitation and 20 nm slits for emission. The selected chemicals are listed in Table 2, and included four sex pheromone components and 34 volatiles from different host plants (peach and pear trees) of G. molesta based on previous investigations ([Natale et al., 2004]; [Lu et al., 2012]; [Najar-Rodriguez et al., 2013b]). […] The fluorescent probe was excited at 337 nm and emission spectra were recorded from 370 to 550 nm. […] Dissociation constants (Kd) of protein to 1-NPN were calculated by non-linear regression, using GraphPad Prism 4.00 software (GraphPad Software Inc.). The inhibition constants (Ki) of the competitors were determined using the corresponding IC50 values (concentration of competitor that reduced the initial fluorescence intensity by half) based on the following equation: Ki = [IC50]/(1+[1-NPN]/K1-NPN), where [1-NPN] is the free concentration of 1-NPN and K1-NPN is the dissociation constant of the complex GmolCSP8/1-NPN.
FIGURE 5 Binding curve and relative Scatchard plot of 1-NPN to rGmolCSP8. […] The calculated dissociation constant of rGmolCSP8 was 13.85 μM. […]

[5] = target: GmolCSP8-V40A (Grapholita molesta, UniProt A0A0M4FML8, V55A); assay: Titration of protein with fluorescent probe 1-NPN, mutant V40A
Description: as §1

Chain of GmolCSP8-L80A (A0A0M4FML8 entry or part of it L95A): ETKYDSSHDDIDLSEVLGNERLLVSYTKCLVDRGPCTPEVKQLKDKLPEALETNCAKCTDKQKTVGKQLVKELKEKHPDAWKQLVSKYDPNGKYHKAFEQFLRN
Chain of GmolCSP8-V40A (A0A0M4FML8 entry or part of it V55A): as the sequence (A0A0M4FML8 entry or part of it L95A) above, with V40A, A80L counted along it
Chain of GmolCSP8-T27A (A0A0M4FML8 entry or part of it T42A): as the sequence (A0A0M4FML8 entry or part of it L95A) above, with T27A, A80L counted along it
Chain of GmolCSP8-L30A (A0A0M4FML8 entry or part of it L45A): as the sequence (A0A0M4FML8 entry or part of it L95A) above, with L30A, A80L counted along it
Chain of rGmolCSP8 (A0A0M4FML8 entry or part of it): as the sequence (A0A0M4FML8 entry or part of it L95A) above, with A80L counted along it

c1ccc(Nc2cccc3ccccc23)cc1 [1-NPN, N-phenyl-1-naphthylamine]
Kd [1]: 11.7 µM
Kd [2]: 11.2 µM
Kd [3]: 14.4 µM
Kd [4]: 13.8 µM
Kd [5]: 11.8 µM
